Laboratory results from patent US5840697A, “Peptide inhibitors of calmodulin” (Torrey Pines Institute for Molecular Studies, priority 1996, dated 1998).
Square brackets hold non-standard residues; d marks the D form. Peptide text beside a SMILES is read from it.

Each compound was assayed against calmodulin (Homo sapiens, UniProt P0DP23) (assay: calcium-dependent phosphodiesterase assay (calmodulin activity)). Settings: 50 μM peptide; PDE without calmodulin = 100%, calmodulin without peptide = 0%.
Format: biochemical
Description: In the calcium dependent phosphodiesterase assay, calmodulin can be assayed by its ability to stimulate phosphodiesterase activity as determined by a two-step assay procedure illustrated by reactions (1) and (2) below. [drawing 1]
During the first step of the assay cyclic adenosine 3'5'-monophosphate (cAMP) is incubated with calcium-activated phosphodiesterase (Cal-PDE), which hydrolyses the 3'bond producing adenosine 5'-monophosphate (5'-AMP). During the second step, 5'-AMP is quantitatively converted into adenosine and inorganic phosphate (Pi) through the action of a 5-nucleotidase. The reaction is followed by the measurement of the Pi formed by reading the absorbance at 660 nm after reacting with ammonium molybdate. The amount of Pi formed is directly related to the phosphodiesterase activity which depends on the level of activation by calmodulin.
To sample assay tubes were added the following components: assay buffer, 25 ul; CaCl2, 5 ul; 5'-nucleotidase, 7.5 ul (stock solution is 10 units/ml); calmodulin 5 units; calmodulin inhibitor peptides to obtain the desired final concentration of 50 μM. The volume was then made up to 200 ul with water. Control blanks were prepared replacing the peptides with water. The added components were thoroughly mixed and the tubes incubated at 30° C. for 10 min. […] The samples were centrifuged to remove the protein precipitate and the 50 ul of the supernatant was withdrawn for phosphate measurement. […] The absorbance of the solution were read at 660 nm using water as a blank, identified as control "Calmo."
The two controls used in the assay, one without and one with calmodulin, as indicated in FIG. 1 and Table I were as follows,: (1) PDE:
These three controls were used in the calcium-dependent phosphodiesterase assay for reproducibility of the assay.
In addition to the calcium-dependent phosphodiesterase assay data, IC50 values were determined for many of the peptides. The assay carried out for the determination in the IC50 values differed from the above screening assay by the concentration of the peptides being tested.
(3) TFP: trifluoperazine; and (4) Calmidasolium: (1-[bis-(4-chlorophenyl)methyl]-3[-2-(2,4-dichlorophenyl)-2[(2,4-dichlorophenyl)methoxy]-ethyl]-1H-imidazolium chloride. The IC50 values were calculated using sigmoidal curve software (Graphpad, ISI; San Diego, Calif.) using the % inhibition at different mixture concentrations (see protocol for determination of % inhibition).
The (L)-amino acid counterpart for five (5) of the all (D)-amino acid peptides identified from the PS-SCL were synthesized in order to study the stereoselectivity of the inhibition.

Row | SMILES | inhibition at 50 µM
1 | CC[C@@H](C)[C@@H](NC(=O)[C@@H](Cc1c[nH]c2ccccc12)NC(=O)[C@@H](CC(C)C)NC(C)=O)C(=O)N[C@H](Cc1c[nH]cn1)C(=O)N[C@H](Cc1c[nH]cn1)C(=O)N[C@H](CCCNC(=N)N)C(N)=O [Ac-(D)Leu-(D)Trp-(D)Ile-(D)His-(D)His-(D)Arg-NH2] (Ac-[dL][dW][dI][dH][dH][dR]-NH2) | 79%

Same assay, conditions: (L)-amino acid peptides of Table II

Row | SMILES | calmodulin inhibitory activity, in words
2 | CC(=O)N[C@@H](CC(C)C)C(=O)N[C@@H](Cc1c[nH]c2ccccc12)C(=O)N[C@@H](CCCNC(=N)N)C(=O)N[C@@H](Cc1c[nH]cn1)C(=O)N[C@@H](Cc1c[nH]cn1)C(=O)N[C@@H](Cc1c[nH]c2ccccc12)C(N)=O [Ac-Leu-Trp-Arg-His-His-Trp-NH2] (Ac-LWRHHW-NH2) | especially high activity

Same assay, conditions: Table I; assayed at 75, 50 and 12.5 μM, average of repeated assays; read-out: Average IC50

Row | SMILES | IC50
3 | CC[C@@H](C)[C@@H](NC(=O)[C@@H](Cc1c[nH]c2ccccc12)NC(=O)[C@@H](CC(C)C)NC(C)=O)C(=O)N[C@@H](C(=O)N[C@H](CC(C)C)C(=O)N[C@H](CCCNC(=N)N)C(N)=O)[C@H](C)CC [Ac-(D)Leu-(D)Trp-(D)Ile-(D)Ile-(D)Leu-(D)Arg-NH2] (Ac-[dL][dW][dI][dI][dL][dR]-NH2) | 7.2 µM
4 | CC[C@@H](C)[C@@H](NC(=O)[C@@H](CCC(N)=O)NC(=O)[C@@H](CC(C)C)NC(C)=O)C(=O)N[C@H](Cc1c[nH]cn1)C(=O)N[C@H](Cc1c[nH]cn1)C(=O)N[C@H](Cc1c[nH]c2ccccc12)C(N)=O [Ac-(D)Leu-(D)Gln-(D)Ile-(D)His-(D)His-(D)Trp-NH2] (Ac-[dL][dQ][dI][dH][dH][dW]-NH2) | 27 µM
5 | CC(=O)N[C@H](CC(C)C)C(=O)N[C@H](Cc1c[nH]c2ccccc12)C(=O)N[C@H](CCCNC(=N)N)C(=O)N[C@H](Cc1c[nH]cn1)C(=O)N[C@H](CC(C)C)C(=O)N[C@H](CCCNC(=N)N)C(N)=O [Ac-(D)Leu-(D)Trp-(D)Arg-(D)His-(D)Leu-(D)Arg-NH2] (Ac-[dL][dW][dR][dH][dL][dR]-NH2) | 16 µM
6 | CC(=O)N[C@H](CC(C)C)C(=O)N[C@H](CCC(N)=O)C(=O)N[C@H](CCCNC(=N)N)C(=O)N[C@H](Cc1c[nH]cn1)C(=O)N[C@H](CC(C)C)C(=O)N[C@H](CCCNC(=N)N)C(N)=O [Ac-(D)Leu-(D)Gln-(D)Arg-(D)His-(D)Leu-(D)Arg-NH2] (Ac-[dL][dQ][dR][dH][dL][dR]-NH2) | 25 µM
7 | CC(=O)N[C@H](CC(C)C)C(=O)N[C@H](Cc1c[nH]c2ccccc12)C(=O)N[C@H](CCCNC(=N)N)C(=O)N[C@H](Cc1c[nH]cn1)C(=O)N[C@H](Cc1c[nH]cn1)C(=O)N[C@H](CCCNC(=N)N)C(N)=O [Ac-(D)Leu-(D)Trp-(D)Arg-(D)His-(D)His-(D)Arg-NH2] (Ac-[dL][dW][dR][dH][dH][dR]-NH2) | 8.1 µM
8 | CC[C@@H](C)[C@@H](NC(=O)[C@@H](CCCNC(=N)N)NC(=O)[C@@H](CCC(N)=O)NC(=O)[C@@H](CC(C)C)NC(C)=O)C(=O)N[C@H](Cc1c[nH]cn1)C(=O)N[C@H](Cc1c[nH]c2ccccc12)C(N)=O [Ac-(D)Leu-(D)Gln-(D)Arg-(D)Ile-(D)His-(D)Trp-NH2] (Ac-[dL][dQ][dR][dI][dH][dW]-NH2) | 19 µM
9 | CC[C@@H](C)[C@@H](NC(=O)[C@@H](Cc1c[nH]c2ccccc12)NC(=O)[C@@H](CC(C)C)NC(C)=O)C(=O)N[C@@H](C(=O)N[C@H](Cc1c[nH]cn1)C(=O)N[C@H](Cc1c[nH]c2ccccc12)C(N)=O)[C@H](C)CC [Ac-(D)Leu-(D)Trp-(D)Ile-(D)Ile-(D)His-(D)Trp-NH2] (Ac-[dL][dW][dI][dI][dH][dW]-NH2) | 8.6 µM
10 | Clc1ccc(C(c2ccc(Cl)cc2)n2cc[n+](CC(OCc3ccc(Cl)cc3Cl)c3ccc(Cl)cc3Cl)c2)cc1 (stereo not drawn) [Calmidazolium, (1-[bis-(4-chlorophenyl)methyl]-3[-2-(2,4-dichlorophenyl)-2[(2,4-dichlorophenyl)methoxy]-ethyl]-1H-imidazolium chloride, reference compound] | 9 µM
11 | CC[C@@H](C)[C@@H](NC(=O)[C@@H](CCC(N)=O)NC(=O)[C@@H](CC(C)C)NC(C)=O)C(=O)N[C@@H](C(=O)N[C@H](CC(C)C)C(=O)N[C@H](CCCNC(=N)N)C(N)=O)[C@H](C)CC [Ac-(D)Leu-(D)Gln-(D)Ile-(D)Ile-(D)Leu-(D)Arg-NH2] (Ac-[dL][dQ][dI][dI][dL][dR]-NH2) | 20 µM
12 | CC[C@@H](C)[C@@H](NC(=O)[C@@H](Cc1c[nH]c2ccccc12)NC(=O)[C@@H](CC(C)C)NC(C)=O)C(=O)N[C@H](Cc1c[nH]cn1)C(=O)N[C@H](Cc1c[nH]cn1)C(=O)N[C@H](CCCNC(=N)N)C(N)=O [Ac-(D)Leu-(D)Trp-(D)Ile-(D)His-(D)His-(D)Arg-NH2] (Ac-[dL][dW][dI][dH][dH][dR]-NH2) | 20 µM
13 | CC[C@@H](C)[C@@H](NC(=O)[C@@H](Cc1c[nH]c2ccccc12)NC(=O)[C@@H](CC(C)C)NC(C)=O)C(=O)N[C@@H](C(=O)N[C@H](Cc1c[nH]cn1)C(=O)N[C@H](CCCNC(=N)N)C(N)=O)[C@H](C)CC [Ac-(D)Leu-(D)Trp-(D)Ile-(D)Ile-(D)His-(D)Arg-NH2] (Ac-[dL][dW][dI][dI][dH][dR]-NH2) | 5.1 µM
14 | CC(=O)N[C@H](CC(C)C)C(=O)N[C@H](CCC(N)=O)C(=O)N[C@H](CCCNC(=N)N)C(=O)N[C@H](Cc1c[nH]cn1)C(=O)N[C@H](Cc1c[nH]cn1)C(=O)N[C@H](Cc1c[nH]c2ccccc12)C(N)=O [Ac-(D)Leu-(D)Gln-(D)Arg-(D)His-(D)His-(D)Trp-NH2] (Ac-[dL][dQ][dR][dH][dH][dW]-NH2) | 25 µM
15 | CC[C@@H](C)[C@@H](NC(=O)[C@@H](CCC(N)=O)NC(=O)[C@@H](CC(C)C)NC(C)=O)C(=O)N[C@H](Cc1c[nH]cn1)C(=O)N[C@H](Cc1c[nH]cn1)C(=O)N[C@H](CCCNC(=N)N)C(N)=O [Ac-(D)Leu-(D)Gln-(D)Ile-(D)His-(D)His-(D)Arg-NH2] (Ac-[dL][dQ][dI][dH][dH][dR]-NH2) | 20 µM
16 | CC(=O)N[C@H](CC(C)C)C(=O)N[C@H](CCC(N)=O)C(=O)N[C@H](CCCNC(=N)N)C(=O)N[C@H](Cc1c[nH]cn1)C(=O)N[C@H](CC(C)C)C(=O)N[C@H](Cc1c[nH]c2ccccc12)C(N)=O [Ac-(D)Leu-(D)Gln-(D)Arg-(D)His-(D)Leu-(D)Trp-NH2] (Ac-[dL][dQ][dR][dH][dL][dW]-NH2) | 20 µM
17 | CC[C@@H](C)[C@@H](NC(=O)[C@@H](CCC(N)=O)NC(=O)[C@@H](CC(C)C)NC(C)=O)C(=O)N[C@@H](C(=O)N[C@H](Cc1c[nH]cn1)C(=O)N[C@H](Cc1c[nH]c2ccccc12)C(N)=O)[C@H](C)CC [Ac-(D)Leu-(D)Gln-(D)Ile-(D)Ile-(D)His-(D)Trp-NH2] (Ac-[dL][dQ][dI][dI][dH][dW]-NH2) | 17 µM
18 | CC[C@@H](C)[C@@H](NC(=O)[C@@H](Cc1c[nH]c2ccccc12)NC(=O)[C@@H](CC(C)C)NC(C)=O)C(=O)N[C@H](Cc1c[nH]cn1)C(=O)N[C@H](CC(C)C)C(=O)N[C@H](CCCNC(=N)N)C(N)=O [Ac-(D)Leu-(D)Trp-(D)Ile-(D)His-(D)Leu-(D)Arg-NH2] (Ac-[dL][dW][dI][dH][dL][dR]-NH2) | 7.8 µM
19 | CC[C@@H](C)[C@@H](NC(=O)[C@@H](CCCNC(=N)N)NC(=O)[C@@H](CCC(N)=O)NC(=O)[C@@H](CC(C)C)NC(C)=O)C(=O)N[C@H](Cc1c[nH]cn1)C(=O)N[C@H](CCCNC(=N)N)C(N)=O [Ac-(D)Leu-(D)Gln-(D)Arg-(D)Ile-(D)His-(D)Arg-NH2] (Ac-[dL][dQ][dR][dI][dH][dR]-NH2) | 26 µM
20 | CC[C@@H](C)[C@@H](NC(=O)[C@@H](CCC(N)=O)NC(=O)[C@@H](CC(C)C)NC(C)=O)C(=O)N[C@@H](C(=O)N[C@H](Cc1c[nH]cn1)C(=O)N[C@H](CCCNC(=N)N)C(N)=O)[C@H](C)CC [Ac-(D)Leu-(D)Gln-(D)Ile-(D)Ile-(D)His-(D)Arg-NH2] (Ac-[dL][dQ][dI][dI][dH][dR]-NH2) | 35 µM
21 | CC[C@@H](C)[C@@H](NC(=O)[C@@H](CCCNC(=N)N)NC(=O)[C@@H](Cc1c[nH]c2ccccc12)NC(=O)[C@@H](CC(C)C)NC(C)=O)C(=O)N[C@H](Cc1c[nH]cn1)C(=O)N[C@H](CCCNC(=N)N)C(N)=O [Ac-(D)Leu-(D)Trp-(D)Arg-(D)Ile-(D)His-(D)Arg-NH2] (Ac-[dL][dW][dR][dI][dH][dR]-NH2) | 7.5 µM
22 | CC(=O)N[C@H](CC(C)C)C(=O)N[C@H](CCC(N)=O)C(=O)N[C@H](CCCNC(=N)N)C(=O)N[C@H](Cc1c[nH]cn1)C(=O)N[C@H](Cc1c[nH]cn1)C(=O)N[C@H](CCCNC(=N)N)C(N)=O [Ac-(D)Leu-(D)Gln-(D)Arg-(D)His-(D)His-(D)Arg-NH2] (Ac-[dL][dQ][dR][dH][dH][dR]-NH2) | 20 µM

Same assay, conditions: Table II; (L)-amino acid peptides, concentrations 0.2 to 50.0 μM; read-out: IC50

Row | SMILES | IC50
23 | CC(=O)N[C@@H](CC(C)C)C(=O)N[C@@H](Cc1c[nH]c2ccccc12)C(=O)N[C@@H](CCCNC(=N)N)C(=O)N[C@@H](Cc1c[nH]cn1)C(=O)N[C@@H](Cc1c[nH]cn1)C(=O)N[C@@H](Cc1c[nH]c2ccccc12)C(N)=O [Ac-Leu-Trp-Arg-His-His-Trp-NH2] (Ac-LWRHHW-NH2) | 1.16 µM
24 | CC[C@H](C)[C@H](NC(=O)[C@H](CCC(N)=O)NC(=O)[C@H](CC(C)C)NC(C)=O)C(=O)N[C@@H](Cc1c[nH]cn1)C(=O)N[C@@H](CC(C)C)C(=O)N[C@@H](CCCNC(=N)N)C(N)=O [Ac-Leu-Gln-Ile-His-Leu-Arg-NH2] (Ac-LQIHLR-NH2) | 87 µM
